# Earlier results as cited in patent US20080248506A1, “Method of Monitoring Anti-Tumor Activity of an Hdac Inhibitor” (Pharmacyclics, Inc., priority 2004, published 2008).
# How the values were obtained:
# H2AX = conditions: myeloid leukemia cell lines (HL60, K562, MDS92L; n=3)
Compound,H2AX phosphorylation (H2AX),"γ-H2AX accumulation (γ-H2AX; compound by itself, no irradiation)",number of irradiated cells that express γ-H2AX foci (γ-H2AX; with irradiation)
CC(/C=C/C(=O)NO)=C\[C@@H](C)C(=O)c1ccc(N(C)C)cc1 [Trichostatin],cause H2AX phosphorylation,–,–
Nc1ccccc1NC(=O)c1ccc(CNC(=O)OCc2cccnc2)cc1 [MS-275],–,does not produce γ-H2AX accumulation,increase the number of irradiated cells that express γ-H2AX foci
